Experimental data taken from patent publication US20210338717A1, “NANOPARTICLE DELIVERY TO A TARGET TISSUE” (THE GOVERNING COUNCIL OF THE UNIVERSITY OF TORONTO, priority 2020, published 2021).

Tested on: 4T1 tumour-bearing BALB/c mice
Conditions: mouse, in vivo

increase in absolute accumulation in the liver: 6000 times
increase in absolute nanoparticle accumulation in tumour: 7,300,000 times
liver accumulation: 16 % injected dose/gram
liver accumulation, large single dose vs same dose divided: reduced
tumour accumulation: 16 % injected dose/gram
tumour delivery, large single dose vs same dose divided: increased
Substance: gold nanoparticles
